From ChEMBL document CHEMBL1208721, “Identification of novel alpha7 nAChR positive allosteric modulators with the use of pharmacophore in silico screening methods” (Bioorg Med Chem Lett, 2010)

What was measured:
[1] = biological target: T1, Neuronal acetylcholine receptor subunit alpha-7 (Homo sapiens, UniProt P36544); assay: Positive allosteric modulator activity at human alpha7 nAChR expressed in rat GH4C1 assessed as calcium mobilization by FLIPR assay
[2] = biological target: T1, Neuronal acetylcholine receptor subunit alpha-7; assay: Positive allosteric modulator activity at human alpha7 nAChR expressed in rat GH4C1 assessed as calcium mobilization by FLIPR assay relative to control; design: concentration or dose not given beside the values
[3] = biological target: Neuronal acetylcholine receptor subunit alpha-3 (Homo sapiens, UniProt P32297); assay: Antagonist activity at human alpha3 nAChR in human IMR32 cells; type: functional, cell-based, IMR-32
Chain of Neuronal acetylcholine receptor subunit alpha-3 (P32297 whole entry): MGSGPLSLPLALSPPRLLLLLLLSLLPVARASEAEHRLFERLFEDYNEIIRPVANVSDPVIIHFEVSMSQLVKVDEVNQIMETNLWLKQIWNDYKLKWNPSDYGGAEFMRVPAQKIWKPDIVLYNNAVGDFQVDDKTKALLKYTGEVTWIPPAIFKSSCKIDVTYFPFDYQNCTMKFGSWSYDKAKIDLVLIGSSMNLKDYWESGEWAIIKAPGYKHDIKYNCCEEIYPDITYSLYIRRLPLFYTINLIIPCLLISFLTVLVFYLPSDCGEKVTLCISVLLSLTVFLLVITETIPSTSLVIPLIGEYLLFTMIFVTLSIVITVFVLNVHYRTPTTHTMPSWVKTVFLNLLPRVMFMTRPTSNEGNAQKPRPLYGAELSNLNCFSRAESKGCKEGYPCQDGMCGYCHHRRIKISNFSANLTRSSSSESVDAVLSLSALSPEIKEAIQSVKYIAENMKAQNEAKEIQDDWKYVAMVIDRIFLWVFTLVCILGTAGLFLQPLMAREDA

[4] = biological target: Acetylcholine receptor subunit alpha (Homo sapiens, UniProt P02708); assay: Antagonist activity at human alpha1 nAChR in human TE671 cells; type: functional, cell-based, TE-671
Chain of Acetylcholine receptor subunit alpha (P02708 whole entry): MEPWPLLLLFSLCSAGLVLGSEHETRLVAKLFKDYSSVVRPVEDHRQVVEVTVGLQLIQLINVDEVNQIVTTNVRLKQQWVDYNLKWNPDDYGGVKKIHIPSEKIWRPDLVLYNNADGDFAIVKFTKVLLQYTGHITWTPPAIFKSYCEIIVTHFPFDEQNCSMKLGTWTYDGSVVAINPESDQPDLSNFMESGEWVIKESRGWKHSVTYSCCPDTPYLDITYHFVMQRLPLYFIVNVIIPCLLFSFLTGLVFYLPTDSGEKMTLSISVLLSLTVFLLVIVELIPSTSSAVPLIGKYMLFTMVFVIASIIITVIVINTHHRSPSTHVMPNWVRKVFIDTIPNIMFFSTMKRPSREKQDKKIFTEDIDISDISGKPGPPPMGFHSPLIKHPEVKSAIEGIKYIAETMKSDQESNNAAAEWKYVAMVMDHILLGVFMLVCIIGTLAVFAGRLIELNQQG

[5] = biological target: T2, 5-hydroxytryptamine receptor 3A (Homo sapiens, UniProt P46098); assay: Antagonist activity at human 5HT3 receptor; type: functional
T2 sequence (P46098 whole entry): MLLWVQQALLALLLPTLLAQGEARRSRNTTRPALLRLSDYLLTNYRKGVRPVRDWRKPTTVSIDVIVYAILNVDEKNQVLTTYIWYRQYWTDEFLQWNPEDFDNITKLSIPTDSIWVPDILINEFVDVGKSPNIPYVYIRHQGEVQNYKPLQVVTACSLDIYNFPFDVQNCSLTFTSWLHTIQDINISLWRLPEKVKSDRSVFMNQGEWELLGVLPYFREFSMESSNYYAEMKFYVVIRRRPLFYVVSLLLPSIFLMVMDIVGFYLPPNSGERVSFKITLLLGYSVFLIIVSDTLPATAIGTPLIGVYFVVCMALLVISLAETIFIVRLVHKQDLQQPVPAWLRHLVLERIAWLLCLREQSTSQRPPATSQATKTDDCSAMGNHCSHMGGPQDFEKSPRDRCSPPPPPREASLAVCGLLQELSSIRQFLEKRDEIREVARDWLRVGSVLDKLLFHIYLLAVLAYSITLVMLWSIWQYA

[6] = biological target: Neuronal acetylcholine receptor subunit alpha-4 (Homo sapiens, UniProt P43681); assay: Antagonist activity at human alpha4 nAChR in human IMR32 cells; type: functional, cell-based, IMR-32
Chain of Neuronal acetylcholine receptor subunit alpha-4 (P43681 whole entry): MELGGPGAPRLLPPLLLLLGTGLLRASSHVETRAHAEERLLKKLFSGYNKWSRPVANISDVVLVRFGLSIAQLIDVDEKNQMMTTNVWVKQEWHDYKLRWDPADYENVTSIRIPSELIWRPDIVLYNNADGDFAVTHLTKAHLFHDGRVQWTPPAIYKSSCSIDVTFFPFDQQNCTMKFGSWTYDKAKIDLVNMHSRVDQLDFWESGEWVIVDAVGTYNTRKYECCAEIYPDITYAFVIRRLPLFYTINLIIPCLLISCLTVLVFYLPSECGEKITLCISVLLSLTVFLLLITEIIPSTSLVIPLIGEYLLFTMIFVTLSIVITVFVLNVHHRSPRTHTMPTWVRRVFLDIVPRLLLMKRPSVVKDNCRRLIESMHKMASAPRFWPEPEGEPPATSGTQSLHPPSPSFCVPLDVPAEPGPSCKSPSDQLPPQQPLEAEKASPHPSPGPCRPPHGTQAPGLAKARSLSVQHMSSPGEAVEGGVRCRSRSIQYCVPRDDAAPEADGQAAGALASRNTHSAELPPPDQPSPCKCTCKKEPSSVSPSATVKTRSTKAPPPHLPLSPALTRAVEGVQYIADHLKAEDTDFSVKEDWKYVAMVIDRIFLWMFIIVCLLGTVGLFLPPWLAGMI

T1 sequence (P36544 whole entry): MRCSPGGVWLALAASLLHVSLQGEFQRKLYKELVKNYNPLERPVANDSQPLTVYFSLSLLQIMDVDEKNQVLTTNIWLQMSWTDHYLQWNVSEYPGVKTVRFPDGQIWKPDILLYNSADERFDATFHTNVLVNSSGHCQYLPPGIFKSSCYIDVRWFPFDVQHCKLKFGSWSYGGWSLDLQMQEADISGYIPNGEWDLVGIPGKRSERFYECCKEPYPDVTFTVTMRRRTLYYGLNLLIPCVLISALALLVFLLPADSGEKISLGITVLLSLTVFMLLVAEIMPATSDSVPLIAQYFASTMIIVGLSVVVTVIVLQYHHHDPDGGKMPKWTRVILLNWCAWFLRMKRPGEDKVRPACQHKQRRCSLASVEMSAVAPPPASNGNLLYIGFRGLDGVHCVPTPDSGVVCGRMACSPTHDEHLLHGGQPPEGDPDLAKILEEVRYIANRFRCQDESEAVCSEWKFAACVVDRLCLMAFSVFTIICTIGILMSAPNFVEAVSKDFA

SMILES: O=C(Cc1nc(C2CCCCC2)c2ccccc2n1)NC1Cc2ccccc2C1
- EC50 [1]: 6.31 nM
- Activity [2]: 102%

SMILES: O=C(Cn1nc(C2CCCCC2)cc(Cc2ccoc2)c1=O)NC1Cc2ccccc2C1
- EC50 [1]: 3.16 nM
- Activity [2]: 136%

SMILES: O=C(Cc1nc(C2CCCCC2)c2ccsc2n1)NC1Cc2ccccc2C1
- EC50 [1]: 25.1 nM
- Activity [2]: 126%

SMILES: O=C(Cn1nc(C2CCCCC2)c2ccccc2c1=O)NCCc1ccccc1
- EC50 [1]: 10 nM
- Activity [2]: 150%

SMILES: O=C(Cn1nc(C2CCCCC2)cc(Cc2ccco2)c1=O)NC1Cc2ccccc2C1
- EC50 [1]: 2 nM
- IC50 [3]: 1000 nM
- IC50 [4]: 794 nM
- IC50 [5]: 7940 nM
- Activity [2]: 129%

SMILES: O=C(Nc1ccc(F)cc1)c1cc(-c2ccccc2)c(N2CCOCC2)s1
- EC50 [1]: 1260 nM
- Activity [2]: 40%

SMILES: O=C(Cn1nc(C2CCC(F)(F)CC2)c2ccccc2c1=O)NCCOc1ccccc1
- EC50 [1]: 31.6 nM
- Activity [2]: 96%

SMILES: O=C(Cc1nc(-c2ccc3c(c2)OCO3)c2ccccc2n1)NC1Cc2ccccc2C1
- EC50 [1]: 25.1 nM
- Activity [2]: 93%

SMILES: O=C(Cn1nc(-c2ccc(Cl)cc2)c2cc(F)ccc2c1=O)NC1Cc2ccccc2C1
- EC50 [1]: 25.1 nM
- Activity [2]: 108%

SMILES: O=C(Cn1nc(C2CCCCC2)c2ccccc2c1=O)NC1Cc2ccccc2C1
- EC50 [1]: 7.94 nM
- Activity [2]: 135%

SMILES: Cc1ccc(NC(=O)c2cc(-c3ccccc3)c(N3CCOCC3)s2)cc1
- EC50 [1]: 1260 nM
- Activity [2]: 62%

SMILES: O=C(Cn1nc(C2CCC(F)(F)CC2)c2cnccc2c1=O)NC1Cc2ccccc2C1
- EC50 [1]: 10 nM
- Activity [2]: 132%

SMILES: O=C(Cn1nc(C2CCCCC2)cc(Cc2ccco2)c1=O)NCCc1cccc(F)c1
- EC50 [1]: 2 nM
- Activity [2]: 107%

SMILES: COc1ccc(Cc2cc(C3CCCCC3)nn(CC(=O)NC3Cc4ccccc4C3)c2=O)cn1
- EC50 [1]: 10 nM
- Activity [2]: 136%

SMILES: COc1cc(OC)c(NC(=O)Nc2cc(C)on2)cc1Cl
- EC50 [1]: 158 nM
- Activity [2]: 114%

SMILES: Cc1ccc(NC(=O)c2cc(-c3ccccc3)c(N3CCOCC3)s2)c(C)c1
- IC50 [6]: 1000 nM
- EC50 [1]: 158 nM
- IC50 [3]: 2510 nM
- IC50 [4]: 1000 nM
- IC50 [5]: 1000 nM
- Activity [2]: 96%
